This is an account of results in patent publication US8314148B2, “Selective hydroxamate based MMP inhibitors” (Novartis AG, priority 2006, dated 2012).

For series [1], the target named is MMP09 (Homo sapiens, UniProt P14780). Put plainly: MMP assay, determination of IC50 (fluorescence). The format is biochemical. The conditions noted are these: human MMP 0.5 nM, substrate 5 μM, 1 hour preincubation, pH 7.5. Here is the method:
(§1) The activities of a compound according to the present invention can be assessed by the following methods well-described in the art. Determination of IC50 values in MMP assays
(§2) Dose-response curves are prepared in DMSO/water solution (90/10, v/v) in 96-well plate format and stored at 4° C. up to 24 hours prior to analysis. In all steps poly-propylene pipette tips are changed avoiding cross-contamination or compound carry over. On the day of the assay, each compound is further diluted (1/33.33; 96-well plate format) in water containing 0.05% CHAPS to 3-times the desired assay concentration. In the assay for each compound, 11 concentrations ranging from 30 to 0.0003 μM are investigated (0.0003, 0.001, 0.003, 0.01, 0.03, 0.1, 0.3, 1, 3, 10, 30 μM). A three-fold concentrated MMP solution is prepared in two-fold concentrated assay buffer 100 mM Tris-HCl buffer, pH 7.5 containing 100 mM NaCl, 10 mM CaCl2, 10 μM ZnCl2, 0.05% Brij-35 and dispensed in 96-well Greiner plates. Similarly a three-fold concentrated substrate solution (15 μM) is prepared in 100 mM Tris-HCl buffer, pH 7.5 containing 100 mM NaCl, 10 mM CaCl2, 10 μM ZnCl2, 0.05% Brij-35 and dispensed in 96-well Greiner plates. Transfer of compounds, substrate and enzyme from 96-well plates to 384-well plates is made using either Cybi™well or Cybi™disk devices.
(§3) The assay procedure is the following, in each well, 10 μL water/CHAPS (±test compound) is added, followed by 10 μL human MMP solution (final assay concentration 0.5 nM). After 1 hour of incubation at room temperature the assay is started by addition of 10 μL substrate solution (final concentration 5 μM).
(§4) The reaction is allowed to proceed for 1 hours at ambient temperature (˜20-22° C.). At the end of the incubation the fluorescence is measured as described above.
(§5) The apparent inhibition constant, IC50, is determined from the plot of percentage of inhibition vs. inhibitor concentration using non-linear regression analysis software (XLfit, Vers. 3.0.5; ID Business Solution Ltd., Guildford, Surrey, UK).

For series [2], the target named is MMP12 (Homo sapiens, UniProt P39900). Put plainly: MMP assay, determination of IC50 (fluorescence). As to conditions: human MMP 0.5 nM, substrate 5 μM, 1 hour preincubation, pH 7.5. It counts as biochemical. Here is the method: as §1, §2, §3, §4, §5
MMP12, sequence (P39900 106-470): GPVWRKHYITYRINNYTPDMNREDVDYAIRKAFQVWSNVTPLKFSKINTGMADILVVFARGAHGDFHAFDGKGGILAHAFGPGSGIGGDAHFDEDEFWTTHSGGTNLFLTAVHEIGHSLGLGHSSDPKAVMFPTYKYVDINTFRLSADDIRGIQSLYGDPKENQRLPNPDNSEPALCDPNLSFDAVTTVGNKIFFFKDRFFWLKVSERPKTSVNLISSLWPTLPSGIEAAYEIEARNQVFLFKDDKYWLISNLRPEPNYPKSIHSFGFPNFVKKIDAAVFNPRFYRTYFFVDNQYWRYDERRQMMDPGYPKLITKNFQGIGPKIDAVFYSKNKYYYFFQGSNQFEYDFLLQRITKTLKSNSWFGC
Series [3] concerns the target MMP13 (Homo sapiens, UniProt P45452). Put plainly: MMP assay, determination of IC50 (fluorescence). It counts as biochemical. The conditions noted are these: human MMP 0.5 nM, substrate 5 μM, 1 hour preincubation, pH 7.5. On the procedure:
as §1, §2, §3, §4, §5

The target of series [4] is T1, MMP02 (Homo sapiens, UniProt P08253).
T1 sequence (P08253 110-660): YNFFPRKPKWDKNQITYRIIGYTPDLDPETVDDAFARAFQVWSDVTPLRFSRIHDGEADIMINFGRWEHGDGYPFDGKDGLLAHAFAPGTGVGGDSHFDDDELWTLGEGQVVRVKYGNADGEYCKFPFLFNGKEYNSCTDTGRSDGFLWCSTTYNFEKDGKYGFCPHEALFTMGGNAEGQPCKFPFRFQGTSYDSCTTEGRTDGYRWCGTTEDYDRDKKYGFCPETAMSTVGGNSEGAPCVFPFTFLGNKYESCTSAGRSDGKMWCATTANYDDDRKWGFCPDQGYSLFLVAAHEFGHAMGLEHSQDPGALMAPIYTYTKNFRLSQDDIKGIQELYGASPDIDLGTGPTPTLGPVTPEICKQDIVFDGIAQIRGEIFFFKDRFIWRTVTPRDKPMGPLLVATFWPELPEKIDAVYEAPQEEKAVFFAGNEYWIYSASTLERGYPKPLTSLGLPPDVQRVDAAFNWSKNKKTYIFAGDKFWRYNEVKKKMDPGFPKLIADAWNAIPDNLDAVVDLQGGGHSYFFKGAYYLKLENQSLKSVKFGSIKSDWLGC
Put plainly: MMP assay, determination of IC50 (fluorescence). It counts as biochemical. The conditions noted are these: human MMP 0.5 nM, substrate 5 μM, 1 hour preincubation, pH 7.5. On the procedure:
as §1, §2, §3, §4, §5

MMP09, sequence (P14780 94-707): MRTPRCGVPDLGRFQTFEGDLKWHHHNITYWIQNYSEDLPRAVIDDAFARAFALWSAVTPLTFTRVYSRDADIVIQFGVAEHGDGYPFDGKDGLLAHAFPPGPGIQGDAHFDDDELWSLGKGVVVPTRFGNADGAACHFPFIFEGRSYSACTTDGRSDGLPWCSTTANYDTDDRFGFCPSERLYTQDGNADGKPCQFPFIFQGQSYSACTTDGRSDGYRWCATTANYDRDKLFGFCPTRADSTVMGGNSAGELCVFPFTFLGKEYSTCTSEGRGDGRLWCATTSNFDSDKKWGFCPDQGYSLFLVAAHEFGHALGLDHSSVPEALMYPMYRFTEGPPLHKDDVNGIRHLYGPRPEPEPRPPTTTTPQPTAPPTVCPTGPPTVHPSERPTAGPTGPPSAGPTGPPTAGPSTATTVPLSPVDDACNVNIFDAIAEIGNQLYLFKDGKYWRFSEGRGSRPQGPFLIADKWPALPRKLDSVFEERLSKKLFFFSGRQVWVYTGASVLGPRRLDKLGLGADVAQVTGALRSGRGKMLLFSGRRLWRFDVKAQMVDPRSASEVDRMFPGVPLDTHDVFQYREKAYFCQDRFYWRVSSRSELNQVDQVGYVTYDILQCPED

Usually melting point stands for the temperature of the solid-liquid transition. For the compound `COc1cccc(S(=O)(=O)N(CCC(C)C)[C@@H](C(=O)NO)C(C)(C)C)c1` [Example 1, N-isoamyl-N-(3 Methoxyphenylsulfonyl)D-tert-leucine hydroxamic acid], the melting point was 115.5 to 116.5 °C.

As a reminder, the IC50 is the concentration that gives 50% inhibition. A low value points to greater potency in that assay. `CC(C)CCN([C@@H](C(=O)NO)C(C)(C)C)S(=O)(=O)c1cccc(Cl)c1` [Example 2-4]: the IC50 was 0.725 µM in series [1], 0.0175 µM in series [2], 0.095 µM in series [3] and 1.7 µM in series [4].

With `COc1cccc(S(=O)(=O)N(CC(C)C)[C@@H](C(=O)NO)C(C)(C)C)c1` [Example 2-6], the IC50 in series [1] is 1.5 µM; in series [2] it was 0.0175 µM; in series [3], 0.25 µM; in series [4] it was 11.1 µM.

`CCc1cccc(S(=O)(=O)N(CCC(C)C)[C@@H](C(=O)NO)C(C)(C)C)c1` [Example 2-7]: the IC50 worked out at 7.83 µM in series [1], 0.225 µM in series [2], 0.5 µM in series [3] and 13.9 µM in series [4].

With `CC(=O)Nc1cccc(S(=O)(=O)N(CCC(C)C)[C@@H](C(=O)NO)C(C)(C)C)c1` [Example 2-13], the concentration for half-maximal inhibition (IC50) is 17.4 µM in series [1], 0.035 µM in series [2], 1.15 µM in series [3] and 10.2 µM in series [4].

`CCOc1cccc(S(=O)(=O)N(CCC(C)C)[C@@H](C(=O)NO)C(C)C)c1` [Example 2-17]: the IC50 in series [1] amounted to 12.5 µM; in series [2] it was 0.226 µM; in series [3], 2.44 µM; in series [4] it was 28.3 µM.

On to `COc1cccc(S(=O)(=O)N(Cc2ccccc2)[C@@H](C(=O)NO)C(C)(C)C)c1` [Example 2-23], for which the IC50 in series [1] is 3.5 µM; in series [2] it was 0.145 µM; in series [3] it was 0.8 µM; in series [4], 12.5 µM.

For the compound `COC(=O)CN([C@@H](C(=O)NO)C(C)(C)C)S(=O)(=O)c1cccc(OC)c1` [Example 2-26], the IC50 in series [1] came to 3.7 µM; in series [2], 0.055 µM; in series [3], 0.85 µM; in series [4] it was 8.75 µM.

As for `COc1cccc(S(=O)(=O)N(CC(=O)N(C)C)[C@@H](C(=O)NO)C(C)(C)C)c1` [Example 2-27], the IC50 in series [1] was 22.7 µM; in series [2], 0.3 µM; in series [3] it was 4.95 µM; in series [4], at least 40.3 µM.

With `CC(C)CCN([C@@H](C(=O)NO)C(C)(C)C)S(=O)(=O)c1cccc(N)c1` [Example 2-28], the IC50 was 3.1 µM in series [1], 0.05 µM in series [2], 1.55 µM in series [3] and 3.15 µM in series [4].

`CC(C)CCN([C@@H](C(=O)NO)C(C)(C)C)S(=O)(=O)c1cccc(NC(=O)NC(C)C)c1` [Example 2-34]: the IC50 in series [1] was 6.9 µM; in series [2], 0.065 µM; in series [3], 1.2 µM; in series [4], 3.7 µM.

Take `CCCN([C@@H](C(=O)NO)C(C)(C)C)S(=O)(=O)c1cccc(C(=O)NC)c1` [Example 2-38]: the IC50 in series [1] was above 30 µM; in series [2], 0.65 µM; in series [3] it was 25.5 µM; in series [4] it was above 30 µM.

For `CCCN([C@@H](C(=O)NO)C(C)(C)C)S(=O)(=O)c1cccc(C(=O)OC)c1` [Example 2-39], the half-inhibitory concentration (IC50) in series [1] is above 30 µM; in series [2], 0.4 µM; in series [3], 6.55 µM; in series [4], above 30 µM.

Turning to `CCNC(=O)Nc1cccc(S(=O)(=O)N(CCCN2CCCCC2)[C@@H](C(=O)NO)C(C)(C)C)c1` [Example 4-4], the 50% inhibitory concentration (IC50) in series [1] came out at 0.9 µM; in series [2], 0.0015 µM; in series [3], 0.05 µM; in series [4], 1.35 µM.

In the case of `COc1cccc(S(=O)(=O)N(CCCc2cccnc2)[C@@H](C(=O)NO)C(C)(C)C)c1` [Example 5], the IC50 in series [1] came to 0.4 µM; in series [2] it was 0.0055 µM; in series [3] it was 0.07 µM; in series [4], 7.7 µM.

Turning to `COc1cccc(S(=O)(=O)N(CCO)[C@@H](C(=O)NO)C(C)(C)C)c1` [Example 6], the IC50 in series [1] worked out at 0.3 µM; in series [2], 0.002 µM; in series [3] it was 0.03 µM; in series [4], 3 µM.
